Results on seven sequences are retold here after patent US20060263802A1 (priority 2003, published 2006).

This experiment deals with human monoclonal antibody CR57. The format is binding.
As to KLKLCGVL, the “binding of CR57 to 12-, 10- and 8-mer peptides” value is “bound”.
To CKLKLCGVLG belongs “bound”.
Next, KGACKLKLCGVL: “bound”.
To GACKLKLCGVLG belongs “bound”.
Take LKLCGVLG: the “binding of CR57 to 12-, 10- and 8-mer peptides” value is “bound”.
To KLCGVLGL belongs “bound”; to ACKLKLCGVL, “bound”.
